Measurements reported in patent US20100144802A1, “Small Molecule Inhibitors for Immune Modulation” (priority 2007, published 2010).

How the values were obtained:
[1] = mouse, in vivo
Description: (§1) FIG. 1 depicts the novel small molecule inhibitor, WP1066, that inhibits Stat-3 activity and has significant central nervous system (CNS) and glioma tumor penetration in vitro and in vivo. FIG. 1A provides the chemical structure of WP1066. […] WP1066 was injected intraperitoneally (IP) at doses of 100 mg/kg every other day for two weeks in nude mice. Specifically, plasma, CNS tissue, and U87-MG flank tumors were harvested and, after extraction, were analyzed for WP1066 content using tandem liquid chromatography/mass spectrometry. […] Cells were stained with fluorescently-labeled anti-CD3 and anti-CD11b antibodies, and propidium iodide (PI) and analyzed by flow cytometry. Macrophages and T cells were gated on CD11b^+ and CD3^+ populations, respectively, and cell death (%) was quantified as CD11b^+PI^+ or CD3^+PI^+ populations in the respective plots. Plots represent the 5 μM maximum dose (clear histogram) compared to control untreated cells (shaded histogram) incubated under similar conditions.

[2] = Plasma concentration after oral administration; type: in vivo; settings: mice
Description: Patients with malignant human gliomas have a preponderance of immunosuppressive cytokines, a lack of effector/activated T cells, enhanced regulatory T cells (Tregs), and inadequate antigen-presentation functional activity, contributing to their profound immunosuppression. Known immune stimulators within these patients are insufficient to overcome these influences. Therefore, we investigated whether a pharmacological derivative of the natural compound, caffeic acid (WP1066)(FIG. 1A), a small molecule inhibitor of Stat-3 activity, can (in physiologically relevant doses) attenuate these suppressed immune responses.

Stat-3 = molecular target: T1, Stat-3 (Homo sapiens, UniProt P40763); assay: Phosphorylated Stat-3 by intracellular staining and flow cytometry in PBMCs; type: cell-based; settings: doses achievable in vivo (1 nM-5 μM)
T1 construct: normal donor peripheral blood mononuclear cells (PBMCs) were assessed for phosphorylated Stat-3 activity; endogenous in cells; host or cells: normal donor peripheral blood mononuclear cells (PBMCs)

normal donor PBMCs = assay: Cell death (propidium iodide) of macrophages and T cells in PBMCs; type: cell-based, human; settings: 1 nM-5 μM, 2 and 4 hours
Description: as §1

CD80 and CD86 [3] = assay: Costimulatory molecule expression (CD80, CD86) by flow cytometry; type: cell-based, human
Description: (§2) PBMCs from normal human donors (n=5) were incubated for 24 hrs at 37° C., 5% CO2, in either medium (RPMI 1640+10% fetal bovine serum) or medium supplemented with 5 μM WP1066. Cells were then stained with fluorescent antibodies to CD11b and either CD80 or CD86 and analyzed by flow cytometry. Glioma-infiltrating microglia were purified from freshly resected GBM patient tumor tissue (n=3) and incubated in either medium or medium supplemented with WP1066 (1 μM). After incubation, microglia (CD11b^+/CD45^+) were double stained with fluorescent antibodies to CD11b and either CD80 or CD86, and analyzed by flow cytometry. Numbers in the upper right quadrant of each graph denote the percentage of CD11b^+ gated cells that express either CD80 or CD86. […] Cells were then labeled with CD11b/CD14 macrophage markers and stained and analyzed for intracellular cytokine production. Percentages of macrophages that were CD11b^+/CD14^+ and also positive for the respective cytokine were calculated by flow cytometry analysis. A scatter plot representative of all samples analyzed for macrophage intracellular cytokine production was determined with LPS-treated cells (circles) and WP1066-treated cells (diamonds). The black bars denote the mean values of each subgroup, p values determining statistical significance between LPS-stimulated groups and WP1066-stimulated groups were determined using Student's t test (NS, not statistically significant). […] Carboxyfluoroscein succinimidyl ester (CFSE)-labeled CD8^+ T cells isolated from newly diagnosed GBM patients were incubated with untreated autologous APCs (CD11b^+/CD14^+) and anti-CD3 antibody, with anti-CD3 antibody+anti-CD28 antibody, and with LPS-treated (5 μg/mL) autologous APCs or WP1066-treated (1 μM) autologous APCs. In all cases, cells were incubated for 4 days at 37° C., 5% CO2, followed by surface staining for T cell markers (CD3, CD8) and analysis by flow cytometry. […] Purity of all cell populations was determined to be at least 97% by flow cytometry. […]

macrophages = assay: Macrophage intracellular cytokine production by flow cytometry; type: cell-based, human; settings: 4 hrs
Description: PBMCs from normal human donors (n=5) were incubated for 24 hrs at 37° C., 5% CO2, in either medium (RPMI 1640+10% fetal bovine serum) or medium supplemented with 5 μM WP1066. Cells were then stained with fluorescent antibodies to CD11b and either CD80 or CD86 and analyzed by flow cytometry. Glioma-infiltrating microglia were purified from freshly resected GBM patient tumor tissue (n=3) and incubated in either medium or medium supplemented with WP1066 (1 μM). After incubation, microglia (CD11b^+/CD45^+) were double stained with fluorescent antibodies to CD11b and either CD80 or CD86, and analyzed by flow cytometry. Numbers in the upper right quadrant of each graph denote the percentage of CD11b^+ gated cells that express either CD80 or CD86. […] Cells were then labeled with CD11b/CD14 macrophage markers and stained and analyzed for intracellular cytokine production. Percentages of macrophages that were CD11b^+/CD14^+ and also positive for the respective cytokine were calculated by flow cytometry analysis. A scatter plot representative of all samples analyzed for macrophage intracellular cytokine production was determined with LPS-treated cells (circles) and WP1066-treated cells (diamonds). The black bars denote the mean values of each subgroup, p values determining statistical significance between LPS-stimulated groups and WP1066-stimulated groups were determined using Student's t test (NS, not statistically significant). […] Carboxyfluoroscein succinimidyl ester (CFSE)-labeled CD8^+ T cells isolated from newly diagnosed GBM patients were incubated with untreated autologous APCs (CD11b^+/CD14^+) and anti-CD3 antibody, with anti-CD3 antibody+anti-CD28 antibody, and with LPS-treated (5 μg/mL) autologous APCs or WP1066-treated (1 μM) autologous APCs. In all cases, cells were incubated for 4 days at 37° C., 5% CO2, followed by surface staining for T cell markers (CD3, CD8) and analysis by flow cytometry. The number on each plot indicates the percentage of CD8^+ gated cells that have undergone cell division via CFSE dilution. […] For (A-C), modified Percoll density gradient (1.083 g/mL) centrifugation was used to isolate PBMCs of both GBM patients and normal donors. CD8+ T cells were isolated by magnetic bead separation and then labeled with CFSE. Autologous APCs were purified from the above density gradient buffy-coat layer by negative selection, using a monocyte bead isolation kit and magnetic separation column. Purity of all cell populations was determined to be at least 97% by flow cytometry. Autologous microglia/macrophages from GBM patients were purified from freshly resected human glioma/brain tissue using a modified Percoll gradient isolation technique. All APCs were treated with the respective stimulants (control medium alone, LPS, or WP1066) for 24 hours and then washed prior to incubation with T cells in the proliferation assay. […] T cells from the same patients were isolated with human CD3 microbeads and a magnetic separation column, with the exception of one patient who lacked sufficient PBMCs for both monocyte and T cell isolations. Monocytes or T cells seeded at a density of 1×10^6 cells per well in 6-well culture plates and were incubated at 37° C., 5% CO2, with either the medium or medium supplemented with 5 μM WP1066. After 2 hours, monocytes and T cells were stimulated for 5 minutes with 2 μg/mL LPS and 5 μg/mL anti-CD3 antibody, respectively, in the presence or absence of WP1066. […]

[4] = tested on: T cells isolated from peripheral blood of GBM patients; assay: T cell proliferation (CFSE dilution) with treated antigen-presenting cells; type: cell-based, human; settings: GBM patient T cells with treated macrophages/APCs; WP1066 1 μM, LPS 5 μg/mL, 4 days
Description: PBMCs from normal human donors (n=5) were incubated for 24 hrs at 37° C., 5% CO2, in either medium (RPMI 1640+10% fetal bovine serum) or medium supplemented with 5 μM WP1066. Cells were then stained with fluorescent antibodies to CD11b and either CD80 or CD86 and analyzed by flow cytometry. Glioma-infiltrating microglia were purified from freshly resected GBM patient tumor tissue (n=3) and incubated in either medium or medium supplemented with WP1066 (1 μM). After incubation, microglia (CD11b^+/CD45^+) were double stained with fluorescent antibodies to CD11b and either CD80 or CD86, and analyzed by flow cytometry. […] Cells were then labeled with CD11b/CD14 macrophage markers and stained and analyzed for intracellular cytokine production. Percentages of macrophages that were CD11b^+/CD14^+ and also positive for the respective cytokine were calculated by flow cytometry analysis. A scatter plot representative of all samples analyzed for macrophage intracellular cytokine production was determined with LPS-treated cells (circles) and WP1066-treated cells (diamonds). The black bars denote the mean values of each subgroup, p values determining statistical significance between LPS-stimulated groups and WP1066-stimulated groups were determined using Student's t test (NS, not statistically significant). […] Purity of all cell populations was determined to be at least 97% by flow cytometry. […]

[5] = tested on: monocytes isolated from GBM patients; assay: Immunoblotting of signaling proteins in GBM patient monocytes; type: cell-based, human; settings: 5 μM
Description: (§3) To determine how WP1066 induces these potent immune responses, T cells and monocytes isolated from GBM patients were treated with WP1066 and subsequently lysed and analyzed by immunoblotting for critical signaling proteins. […] The tyrosine phosphorylation of Syk initiates downstream signaling events during human monocyte activation, whereas the phosphorylation of Tyr319 in Zap-70 plays a critical role in mediating T cell activation via signaling through the T cell receptor. Raeder, E. M. et al. J Immunol 163, 6785-93 (1999); Williams, B. L. et al. EMBO 18, 1832-1844 (1999). Both Syk and ZAP-70 can be phosphorylated through autophosphorylation and transphosphorylation. […] The tyrosine phosphorylation of critical signaling proteins induced/enhanced by WP1066 are likely pivotal to the WP1066-induced restoration of immune function in GBM patients and explains the mechanisms of potent immune activation.
as §2, with “APCs.” for “APCs. In all cases, cells were incubated for 4 days at 37° C., 5% CO2, followed by surface staining for T cell markers (CD3, CD8) and analysis by flow cytometry.”

T cells = assay: Immunoblotting of signaling proteins in GBM patient T cells; type: cell-based, human; settings: 5 μM
Description: as §3
PBMCs from normal human donors (n=5) were incubated for 24 hrs at 37° C., 5% CO2, in either medium (RPMI 1640+10% fetal bovine serum) or medium supplemented with 5 μM WP1066. Cells were then stained with fluorescent antibodies to CD11b and either CD80 or CD86 and analyzed by flow cytometry. […] After incubation, microglia (CD11b^+/CD45^+) were double stained with fluorescent antibodies to CD11b and either CD80 or CD86, and analyzed by flow cytometry. […] Cells were then labeled with CD11b/CD14 macrophage markers and stained and analyzed for intracellular cytokine production. Percentages of macrophages that were CD11b^+/CD14^+ and also positive for the respective cytokine were calculated by flow cytometry analysis. A scatter plot representative of all samples analyzed for macrophage intracellular cytokine production was determined with LPS-treated cells (circles) and WP1066-treated cells (diamonds). The black bars denote the mean values of each subgroup, p values determining statistical significance between LPS-stimulated groups and WP1066-stimulated groups were determined using Student's t test (NS, not statistically significant). […]

intracerebral B16 cells = assay: Survival of C57BL/6J mice with established intracerebral tumors; type: in vivo
intracerebral B16 = assay: Survival of nude mice with established intracerebral B16; type: in vivo
Foxp3 = assay: Intracellular Foxp3 expression in iTreg differentiation and natural Tregs by flow cytometry; type: cell-based, C57BL/6J mice; settings: 0, 0.1 and 1 μM, more than 96 hours
Description: CD4+CD25−CD62L^hi naïve T cells from C57BL/6J mice were stimulated by plate-bound anti-CD3 (2 μg/ml) and soluble anti-CD28 (2 μg/ml) antibodiesin the presence of TGF-β1 (1 ng/ml) plus hIL-2 (200 U/ml) with addition of different concentrations of WP1066 (0, 0.1, and 1 μM) for inducible Treg (iTreg) differentiation; CD4+CD25+ T cells (natural Tregs [nTreg]) were stimulated by plate-bound anti-CD3 (2 μg/ml) antibodies in the presence of hIL-2 (200 U/ml) with addition of different concentrations of WP1066 (0, 0.1, and 1 μM). More than 96 hours after stimulation, the cells were analyzed for intracellular Foxp3 expression using flow cytometry.

[6] = tested on: tumor cell types, including malignant gliomas; settings: variety of tumor cell types; cited from earlier work
CD80 and CD86 [7] = settings: cited from earlier work
[8] = normal donors and GBM patients, 5 μM

T1 sequence (P40763 whole entry): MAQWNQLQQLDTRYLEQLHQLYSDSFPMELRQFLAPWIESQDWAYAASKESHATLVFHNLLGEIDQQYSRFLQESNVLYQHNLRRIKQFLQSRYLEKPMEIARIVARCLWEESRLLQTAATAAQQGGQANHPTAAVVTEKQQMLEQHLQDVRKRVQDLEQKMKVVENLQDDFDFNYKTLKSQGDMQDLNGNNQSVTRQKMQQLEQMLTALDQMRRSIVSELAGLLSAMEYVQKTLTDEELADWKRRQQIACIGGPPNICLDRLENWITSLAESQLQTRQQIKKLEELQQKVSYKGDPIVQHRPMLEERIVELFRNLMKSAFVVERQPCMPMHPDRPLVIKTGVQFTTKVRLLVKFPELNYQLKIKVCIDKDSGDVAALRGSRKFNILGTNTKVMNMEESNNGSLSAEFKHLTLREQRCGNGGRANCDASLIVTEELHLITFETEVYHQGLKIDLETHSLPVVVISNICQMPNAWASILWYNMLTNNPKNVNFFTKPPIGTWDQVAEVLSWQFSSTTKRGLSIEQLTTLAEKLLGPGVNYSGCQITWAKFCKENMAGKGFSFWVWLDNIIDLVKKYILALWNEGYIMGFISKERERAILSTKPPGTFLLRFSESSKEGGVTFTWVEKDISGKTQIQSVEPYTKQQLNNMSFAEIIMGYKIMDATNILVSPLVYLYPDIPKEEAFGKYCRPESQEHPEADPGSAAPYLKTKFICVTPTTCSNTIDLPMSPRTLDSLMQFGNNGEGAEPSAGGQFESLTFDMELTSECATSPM

## C[C@H](NC(=O)/C(C#N)=C/c1cccc(Br)n1)c1ccccc1 [WP1066]
[1]
  uptake of the compound by tumors versus other tissue: higher drug content than any other tissue
[1]; nude
  central nervous system (CNS) concentrations: 0.185 µM
  concentrations in tumor: 1070 nM
  concentrations per gram of tumor: 362 μg/gram
  concentrations within orthotopic gliomas: 1070 nM
[2]
  plasma concentrations: > 2000 nM
Stat-3
  inhibition of Stat-3 within immune cells: inhibit Stat-3
Normal donor PBMCs
  cell viability: not compromised
CD80 and CD86 [3]; 1 μM
  CD80 and CD86 on tumor-infiltrating microglia/macrophages from GBM patients: capable of upregulating CD80 and CD86
CD80 and CD86 [3]; 5 μM, 24 hrs
  CD80 and CD86 on normal donor PBMCs: capable of upregulating CD80 and CD86
CD80 and CD86 [3]; incubated with IL-10 and TGF-β (data not shown)
  up regulation of costimulation in human monocytes: can be achieved
macrophages; [8]
  IL-2 induction from macrophages: induce
  IL-4 induction from macrophages: induce
  IL-12 induction from macrophages: induce
  IL-15 induction from macrophages: induce
[4]
  T cell proliferation: potently induced T cell proliferation
[5]; proteins of 70 to 75 KDa and 50 to 60 KDa, also T cells
  tyrosine phosphorylation in monocytes and T cells: induced or enhanced
[5]; monocytes
  levels of p57/p59-Hck: increased
  phospho-p72Syk (Tyr352): induced
  total protein level of Syk: didn't affect
T cells
  levels of p56-Lck: increased
  phospho-ZAP-70 (Tyr319): induced
  total protein level of ZAP-70: markedly decreased
Intracerebral B16 cells; animals surviving longer than 78 days, tumor cells into contralateral hemisphere
  immunological memory on rechallenge: minimal immunological memory was induced
Intracerebral B16 cells; established intracerebral B16 cells, oral gavage, compared with B16EGFRvIII model
  anti-tumor efficacy (survival): Identical anti-tumor efficacy
Intracerebral B16 cells; established intracerebral syngeneic murine models
  efficacy after in vivo depletions of CD4+ and CD8+ T cells: abrogates the efficacy
Intracerebral B16
  clinical effectiveness (survival) in immune incompetent background: abrogates the clinical effectiveness
Foxp3
  Foxp3 expression in natural Tregs: downregulates Foxp3 expression
Foxp3; iTreg differentiation
  Foxp3 induction in peripheral T cells: inhibits Foxp3 induction
[6]
  proapoptotic activity: proapoptotic activity

## lipopolysaccharide [LPS, reference compound]
macrophages; LPS 5 μg/mL
  IL-1β levels compared with WP1066: significantly higher levels
[4]
  T cell proliferation: unable to induce any T cell proliferation
CD80 and CD86 [7]
  up regulating costimulatory molecules on microglia isolated directly from GBM patients: totally insufficient
